Measured values: patent publication US20220008547A1, “Carrier Peptide Fragment and use Thereof” (TOAGOSEI CO., LTD, priority 2020, published 2022)
Non-standard residues stand in square brackets, D forms with d. No end group written: not given here. FAM = fluorescent dye label; Ahx = NCCCCCC(=O)O; βAla = NCCC(=O)O

System: HeLa cells
Assay: Evaluation of cell-penetrating function by flow cytometry (mean fluorescent intensity)
Type: cell-based, human
Conditions: for MFI (mean fluorescent intensity of measurement target cell populations): 10 μM final concentration, 20-hour incubation at 37° C., 0.5% DMSO, flow cytometer FL2, 10,000 cells
Protocol: HeLa cells (established cell lines derived from human cervical cancer cells) were used as eukaryotic cells, and cell-penetrating functions of three samples (constructs for introducing a foreign substance) obtained in Example 1 were examined
In this example, Examples 1 to 3 were set according to the kind of peptide used as shown below. In addition, as Examples 4 and 5, peptide-free groups were set. The following test was performed in a total of 5 categories. Here, the concentration described below was a final concentration during the following 20-hour incubation.
Here, in all of the examples, the concentration of DMSO was adjusted to 0.5% during the following 20-hour incubation. In addition, the number of test wells (n) in each of the above examples was set to 3.
HeLa cells were cultured using a mixed solution containing a 90% Eagle's MEM medium (containing 0.1% non-essential amino acid, 2 mM of L-glutamine, 1 mM of sodium pyruvate, and 1.5 g/L of sodium bicarbonate) and 10% serum (FBS: fetal bovine serum) as a culture solution.
The HeLa cells were subjected to a trypsin treatment with a 0.25% trypsin/EDTA solution at 37° C. for 3 minutes. After the above treatment, trypsin was inactivated using the culture solution. Centrifugation was performed and the centrifugal supernatant was removed. The cell pellet obtained by centrifugation was suspended in a fresh culture solution. A cell suspension (sample for introducing a foreign substance) having a cell concentration of about 1×10^5 cells/well was prepared from the culture solution, and 2 ml thereof was seeded in each well of a commercially available 6-well plate (commercially available from Iwaki). Then, the cells were cultured at 37° C. for 4 hours under 5% CO2 conditions, and adhesion of the seeded cells was confirmed.
Then, 1 ml of the culture supernatant was removed from the well after the culture for 4 hours, and a culture solution containing Sample 1 at a concentration of 20 μM was added. That is, the final sample concentration in the well was 10 μM.
The plate was then incubated at 37° C. for 20 hours under 5% CO2 conditions.
After such incubation for 20 hours, the cells were washed twice with PBS at 1 ml/well. Then, the cells in the wells were treated with a 0.25% trypsin/EDTA solution at 200 μL/well at 37° C. for 3 minutes. Then, a culture solution at 400 μL/well was additionally added and the cells were collected in the tube. Then, the wells were additionally washed with PBS at 600 μL/well, and the cells remaining in the wells were collected in the above tube. The tube was centrifuged at 4° C. for 5 minutes under 210×g conditions. The centrifugal supernatant was removed, and the cell pellet was suspended (washed) in 1 ml PBS, and centrifuged under the same conditions as above. This operation was repeated twice.
Then, the collected cells were analyzed using a flow cytometer. […]
Using the above flow cytometer, gating was performed based on forward scatter (FSC) and side scatter (SSC), and a gate was set for a measurement target cell population. Then, the fluorescent intensity of the cell population within such a gate was measured. The fluorescent intensity of 10,000 measurement target cells was measured for each measurement sample. […] The measurement results were analyzed using commercially available analysis software “FlowJo (registered trademark)” (commercially available from TreeStar), and a mean fluorescent intensity (MFI) of measurement target cell populations was obtained. […]

| Substance | MFI (mean fluorescent intensity of measurement target cell populations) | cell permeability (comparison of MFI among samples) (10 μM, 20-hour incubation) |
| --- | --- | --- |
| 5(6)-Carboxyfluorescein [Example 4] | 9.7 |  |
| FAM-KKRTLRKNDRKKR-CONH2 ({FAM}-KKRTLRKNDRKKR-NH2) [Example 2] | 24 |  |
| FAM-TLKERCLQVVRSLVKKKRTLRKNDRKKR-CONH2 ({FAM}-TLKERCLQVVRSLVKKKRTLRKNDRKKR-NH2) [Example 1] | 8.2 × 10^2 | the best |
| RXRRBRRXRYQFLIRXRBRXRB-FAM (R[Ahx]RR[βAla]RR[Ahx]RYQFLIR[Ahx]R[βAla]R[Ahx]R[βAla]-{FAM}) [Example 3, X aminohexanoic acid, B β-alanine] | 4.0 × 10^2 |  |
